The subject of data set [1] is chloroform-induced ventricular fibrillation in the mouse. The data set can be described thus: Chloroform-induced ventricular fibrillation in the mouse (action in the case of vagal dysfunction). In kind it is in vivo. Particulars: for Fibrillation ratio (in %): 3 mg/kg i.p., chloroform anesthesia 30 min later, untreated control 100%. From the text:
Chloroform-induced ventricular fibrillation in the mouse (action in the case of vagal dysfunction) A hypofunction of the vagal nervous system leads to a hyperfunction of the sympathetic nervous system. Damages to health which result from an imbalance of the autonomic nervous system if the dysfunction relates to the heart, include weakening of the myocardial contractile force and fatal cardiac arrhythmias such as ventricular fibrillation. The action of the test substances was investigated in the model of chloroform-induced ventricular fibrillation in the mouse (see J. W. Lawson, “Antiarrhythmic activity of some isoquinoline derivatives determined by a rapid screening procedure in the mouse,” J. Pharmacol. Exp. Ther. 160 (1968) 22). […] As soon as respiratory arrest had occurred under deep anesthesia (toxic anesthesia stage), the thorax of the animal was opened with a pair of scissors and the heartbeat was visually inspected. It can be detected at a glance here whether the heart is beating, fibrillating, or has stopped. The respiratory arrest induced by chloroform leads, via absolute anoxia (oxygen deficiency) in combination with a direct stimulating action of chloroform on the sympathetic nervous system, to a strong stimulation of the sympathetic nervous system which in turn leads, in combination with the energy deficiency produced in the heart by oxygen deficiency, to the fatal arrhythmia, ventricular fibrillation. […] The percentage proportion of the mice having ventricular fibrillation in the individual test groups (with n animals) is indicated as the fibrillation ratio. The following fibrillation ratios were determined. […] The experiment is carried out here as described above. […] After a further 15 min, the animals were anesthetized with chloroform and the fibrillation ratio was determined.

Data set [2] concerns papillary muscle of the guinea pig. In words: Action potential duration (APD90) in the papillary muscle of the guinea pig, shortened by rilmakalim (HOE 234). Format: cell-based. Particulars: starting values 185-193 ms; for APD90 + HOE 234, 30 min, then + test substance, 60 min: test substance 2 μmol/l added after 30 min rilmakalim (HOE 234) 1 μg/ml, recorded after a further 60 min. An excerpt:
Action potential duration in the papillary muscle of the guinea pig
ATP deficiency states, such as are observed during ischemia in the cardiac muscle cell, lead to a shortening of the action potential duration. They are regarded as one of the causes of so-called reentry arrhythmias, which can cause sudden cardiac death. The opening of ATP-sensitive potassium channels by the lowering of the ATP level is regarded as causing this (ATP=adenosine triphosphate). For the measurement of the action potential in the papillary muscle of the guinea pig a standard microelectrode technique was employed.
Guinea pigs of both sexes were killed by a blow to the head, the hearts were removed, and the papillary muscles were separated out and suspended in an organ bath. The organ bath was irrigated with Ringer's solution (136 mmol/l of NaCl, 3.3 mmol/l of KCl, 2.5 mmol/l of CaCl2, 1.2 mmol/l of KH2PO4, 1.1 mmol/l of MgSO4, 5.0 mmol/l of glucose, and 10.0 mmol/l of N-(2-hydroxyethyl)piperazine-N′-(2-ethanesulfonic acid) (HEPES), pH adjusted to 7.4 with NaOH) and aerated with 100% oxygen at a temperature of 37° C. The muscle was stimulated by means of an electrode using square-wave impulses of 1 V and 1 ms duration and a frequency of 1 Hz. The action potential was derived and recorded by means of a glass microelectrode inserted intracellularly, which was filled with 3 mol/l of KCl solution. The substance to be tested was added to the Ringer's solution in a concentration of 2 μmol/l. The action potential was amplified using an amplifier from Hugo Sachs (March-Hugstetten, Germany) and stored and analyzed by means of a computer. The duration of the action potential was determined at a degree of repolarization of 90% (APD90). The action potential shortening was produced by addition of a solution of the potassium channel opener Rilmakalim (HOE 234) (W. Linz et al., Arzneimittelforschung/Drug Research, 42 (II) (1992) 1180-1185) (rilmakalim concentration 1 μg/ml). 30 minutes after the administration of rilmakalim, the action potential duration was recorded. The test substance was then added and the action potential duration, which was prolonged again, was recorded after a further 60 minutes. The test substances were added to the bath solution as stock solutions in propanediol.
The following APD90 values (in milliseconds) were recorded.

[3] abbreviates: atropine 1 mg/kg i.v., chloroform 15 min after administration, n = 10.
The mark [4] stands for this setting: Example 8 10 mg/kg i.p., chloroform 30 min after administration, n = 20.

“And” between values parts separate entries of the source, which are not always exact repeats. Equal values may be shown once.

What is called melting point is the temperature, or range, at which the solid turns liquid.

On to `CN1[C@@H]2CC[C@H]1C[C@@H](OC(=O)C(CO)c1ccccc1)C2` (some centres unmarked) [Atropine, atropine, reference compound], for which, in data set [1] (setting [3]), the Fibrillation ratio was determined as 100%, the “Number of animals with fibrillation” value was 10 and the “Number of animals with regular heart action” value is 0.

For `CNC(=S)NS(=O)(=O)c1cc(CCNC(=O)/C=C/c2ccc(OC)cc2OC)ccc1OC` [Example 1, 1-(5-(2-(2,4-Dimethoxycinnamoylamino)ethyl)-2-methoxyphenysulfonyl)-3-methylthiourea], the “Fibrillation ratio (in %)” value in data set [1] (n = 10) is 60%. The “APD90 + HOE 234, 30 min, then + test substance, 60 min” value (“APD90 + HOE 234, 30 min … 60 min” below) in data set [2] came out at 177 milliseconds.

In turn, `CNC(=O)NS(=O)(=O)c1cc(CCNC(=O)/C=C/c2ccc(OC)cc2OC)ccc1OC` [Example 2, 1-(5-(2-(2 ,4-Dimethoxycinnamoylamino)ethyl)-2-methoxyphenylsulfonyl)-3-methylurea] showed a melting point of 210 °C.

As for `CCNC(=S)NS(=O)(=O)c1cc(CCNC(=O)/C=C/c2ccc(OC)cc2OC)ccc1OC` [Example 3, 1-(5-(2-(2,4-Dimethoxycinnamoylamino)ethyl)-2-methoxyphenylsulfonyl)-3-ethylthiourea], the melting point stood at 90 °C.

In turn, `CCNC(=O)NS(=O)(=O)c1cc(CCNC(=O)/C=C/c2ccc(OC)cc2OC)ccc1OC` [Example 4, 1-(5-(2-(2,4-Dimethoxycinnamoylamino)ethyl)-2-methoxyphenylsulfonyl)-3-ethylurea] yielded a melting point of 96 °C.

Take `CNC(=S)NS(=O)(=O)c1cc(CCNC(=O)/C=C/c2ccc(C)cc2C)ccc1OC` [Example 5, 1-(5-(2-(2,4-Dimethylcinnamoylamino)ethyl)-2-methoxyphenylsulfonyl)-3-methylthiourea]: the “Fibrillation ratio (in %)” value in data set [1] (n = 10) came out at 70%.

Molecule `CNC(=O)NS(=O)(=O)c1cc(CCNC(=O)/C=C/c2ccc(C)cc2C)ccc1OC` [Example 6, 1-(5-(2-(2,4-Dimethylcinnamoylamino)ethyl)-2-methoxyphenylsulfonyl)-3-methylurea] yielded a melting point of 227 to 229 °C.

With `CNC(=S)NS(=O)(=O)c1cc(CCNC(=O)/C=C/c2ccc(OC)cc2OC)ccc1OCCOC` [Example 7, 1-(5-(2-(2,4-Dimethoxycinnamoylamino)ethyl)-2-(2-methoxyethoxy)phenylsulfonyl)-3-methylthiourea], the “APD90 + HOE 234, 30 min … 60 min” value in data set [2] is on record as 175 milliseconds.

Regarding `CNC(=O)NS(=O)(=O)c1cc(CCNC(=O)/C=C/c2ccc(OC)cc2OC)ccc1OCCOC` [Example 8, 1-(5-(2-(2,4-Dimethoxycinnamoylamino)ethyl)-2-(2-methoxyethoxy)phenysulfonyl)-3-methylurea], in data set [1] (n = 10), the “Fibrillation ratio (in %)” value amounted to 60%. Further, in data set [1] (setting [4]), the “Number of animals with fibrillation” value was 9 and the “Number of animals with regular heart action” value was 11. Further, the Fibrillation ratio in data set [1] (Example 8 10 mg/kg i.p., chloroform 30 min after administration, n = 20, p < 0.0001 vs atropine, p = 0.024 vs combination) is on record as 45% ^1), 2). The “APD90 + HOE 234, 30 min … 60 min” value in data set [2] was 92 milliseconds.

For `CCNC(=S)NS(=O)(=O)c1cc(CCNC(=O)/C=C/c2ccc(OC)cc2OC)ccc1OCCOC` [Example 9, 1-(5-(2-(2,4-Dimethoxycinnamoylamino)ethyl)-2-(2-methoxyethoxy)phenylsulfonyl)-3-ethylthiourea], the “Fibrillation ratio (in %)” value in data set [1] (n = 10) was found to be 63%.

Consider `CNC(=S)NS(=O)(=O)c1cc(CCNC(=O)/C=C/c2ccccc2)ccc1OC` [Example 12, 1-(5-(2-(Cinnamoylamino)ethyl)-2-methoxyphenylsulfonyl)-3-methylthiourea], for which the “Fibrillation ratio (in %)” value in data set [1] (n = 10) is 63%.

`CNC(=S)NS(=O)(=O)c1cc(CCNC(=O)/C=C/c2ccccc2)ccc1OCCOC` [Example 17, 1-(5-(2-(Cinnamoylamino)ethyl)-2-(2-methoxyethoxy)phenylsulfonyl)-3-methylthiourea] registered a melting point of 150 °C.

The molecule `CNC(=O)NS(=O)(=O)c1cc(CCNC(=O)/C=C/c2ccccc2)ccc1OCCOC` [Example 19, 1-(5-(2-(Cinnamoylamino)ethyl)-2-(2-methoxyethoxy)phenylsulfonyl)-3-methylurea] had a melting point of 65 °C.

For the molecule `CNC(=S)NS(=O)(=O)c1cc(CCNC(=O)/C=C/c2cc(Cl)ccc2OC)ccc1OC` [Example 21, 1-(5-(2-(5-Chloro-2-methoxycinnamoylamino)ethyl)-2-methoxyphenylsulfonyl)-3-methylthiourea], the melting point was in the range of 188 to 190 °C.

With `C=CCOc1ccc(CCNC(=O)/C=C/c2ccc(OC)cc2OC)cc1S(=O)(=O)NC(=S)NC` [Example 23, 1-(2-Allyloxy-5-(2-(2,4-dimethoxycinnamoylamino)ethyl)phenylsulfonyl)-3-methylthiourea], the melting point is 171 to 175 °C.

For the molecule `CNC(=S)NS(=O)(=O)c1cc(CCNC(=O)/C=C/c2ccc(Cl)cc2Cl)ccc1OCCOC` [Example 24], the melting point was in the range of 76 to 78 °C.

Consider `CNC(=S)NS(=O)(=O)c1cc(CCNC(=O)/C=C/c2cc(C(C)(C)C)ccc2OC)ccc1OCCOC` [Example 25, 1-(5-(2-(5-tert-Butyl-2-methoxycinnamoylamino)ethyl)-2-(2-methoxyethoxy)phenyl-sulfonyl)-3-methylthiourea], for which the melting point was found to be 73 °C.

`CNC(=S)NS(=O)(=O)c1cc(CCNC(=O)/C=C/c2ccc(C)cc2C)ccc1OCCOC` [Example 26, 1-(5-(2-(2,4-Dimethylcinnamoylamino)ethyl)-2-(2-methoxyethoxy)phenylsufonyl)-3-methylthiourea] showed a melting point of 116 °C.

Take `CC1(C)Oc2ccc(S(=O)(=O)c3ccccc3)cc2[C@@H](N2CCCC2=O)[C@@H]1O` [HOE 234, Rilmakalim, reference compound]: in data set [2] (potassium channel opener rilmakalim (HOE 234) 1 μg/ml alone, 30 min, before test substance, 37° C., 1 Hz), the “APD90 + HOE 234, 30 min” value is 24 milliseconds and 34 milliseconds.

The values are drawn from patent US6350778B1, “Cinnamoylaminoalkyl-substituted benzenesulfonamide derivatives, processes for their preparation, their use, and pharmaceutical preparations comprising them” (Aventis Pharma Deutschland GmbH, priority 1999, dated 2002).
